Experimental data from ChEMBL document CHEMBL1909046, “DrugMatrix in vitro pharmacology data”.

Key:
[1] = DRUGMATRIX: Phosphodiesterase PDE3 enzyme inhibition (substrate: [3H]cAMP + cAMP); type: tissue-based, Homo sapiens; conditions: platelet; Not Active = under 50% inhibition at 10 µM
[2] = target: Beta-2 adrenergic receptor (Homo sapiens, UniProt P07550); experiment: DRUGMATRIX: Adrenergic beta2 radioligand binding (ligand: [3H] CGP-12177); type: cell membranes, Membrane; conditions: cho; Not Active = under 50% inhibition at 10 µM
Chain of Beta-2 adrenergic receptor (P07550 whole entry): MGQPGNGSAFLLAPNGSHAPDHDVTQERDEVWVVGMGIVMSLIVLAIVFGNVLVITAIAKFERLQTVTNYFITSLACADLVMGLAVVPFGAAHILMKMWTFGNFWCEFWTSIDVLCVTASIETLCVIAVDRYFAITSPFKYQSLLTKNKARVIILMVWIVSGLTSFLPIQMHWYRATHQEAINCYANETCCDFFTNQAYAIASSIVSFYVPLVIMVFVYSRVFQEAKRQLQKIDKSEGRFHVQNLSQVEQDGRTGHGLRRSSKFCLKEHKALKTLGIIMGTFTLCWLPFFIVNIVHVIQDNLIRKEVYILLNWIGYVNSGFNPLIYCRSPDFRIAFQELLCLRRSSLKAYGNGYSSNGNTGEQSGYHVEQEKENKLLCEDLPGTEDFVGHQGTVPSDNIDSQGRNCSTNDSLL

[3] = target: T1, Alpha-1B adrenergic receptor (Rattus norvegicus, UniProt P15823); experiment: DRUGMATRIX: Alpha-1B adrenergic receptor radioligand binding (ligand: prazosin); type: cell membranes, Wistar, Liver, Membrane; conditions: Not Active = under 50% inhibition at 10 µM
T1 sequence (P15823 whole entry): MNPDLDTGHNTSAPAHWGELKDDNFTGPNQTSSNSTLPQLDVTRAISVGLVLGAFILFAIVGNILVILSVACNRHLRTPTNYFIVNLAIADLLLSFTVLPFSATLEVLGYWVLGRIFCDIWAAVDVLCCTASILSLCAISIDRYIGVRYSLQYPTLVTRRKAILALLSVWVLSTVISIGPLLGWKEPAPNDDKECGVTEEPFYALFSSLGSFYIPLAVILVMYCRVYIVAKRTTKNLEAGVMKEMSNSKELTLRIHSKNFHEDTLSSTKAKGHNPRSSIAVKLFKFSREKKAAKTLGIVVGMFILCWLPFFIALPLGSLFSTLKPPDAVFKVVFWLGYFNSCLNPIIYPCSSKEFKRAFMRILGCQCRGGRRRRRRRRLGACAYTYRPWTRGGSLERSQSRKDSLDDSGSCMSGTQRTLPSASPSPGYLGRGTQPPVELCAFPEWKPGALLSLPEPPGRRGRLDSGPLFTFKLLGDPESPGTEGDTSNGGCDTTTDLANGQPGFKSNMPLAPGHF

Adenosine receptor A2a = Adenosine receptor A2a (Homo sapiens, UniProt P29274); experiment: DRUGMATRIX: Adenosine A2A radioligand binding (ligand: […]); type: cell membranes, Membrane; conditions: hek293; Not Active = under 50% inhibition at 10 µM
Chain of Adenosine receptor A2a (P29274 whole entry): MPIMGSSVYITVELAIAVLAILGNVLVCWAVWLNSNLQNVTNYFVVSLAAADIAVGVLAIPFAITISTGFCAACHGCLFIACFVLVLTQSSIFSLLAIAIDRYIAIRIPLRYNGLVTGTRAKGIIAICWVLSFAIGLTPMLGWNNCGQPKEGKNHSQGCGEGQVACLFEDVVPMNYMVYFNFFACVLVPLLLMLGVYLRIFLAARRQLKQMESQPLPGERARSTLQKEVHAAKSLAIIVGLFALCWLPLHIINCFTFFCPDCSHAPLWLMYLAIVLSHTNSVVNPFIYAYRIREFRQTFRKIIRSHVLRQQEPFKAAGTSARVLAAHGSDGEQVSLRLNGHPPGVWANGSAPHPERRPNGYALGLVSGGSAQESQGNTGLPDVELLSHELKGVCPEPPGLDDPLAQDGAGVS

[4] = target: T2, Alpha-2A adrenergic receptor (Homo sapiens, UniProt P08913); type: cell membranes, Sf9, Membrane; conditions: sf9; note: in other assays of this panel Not Active means under 50% inhibition at 10 µM
T2 sequence (P08913 whole entry): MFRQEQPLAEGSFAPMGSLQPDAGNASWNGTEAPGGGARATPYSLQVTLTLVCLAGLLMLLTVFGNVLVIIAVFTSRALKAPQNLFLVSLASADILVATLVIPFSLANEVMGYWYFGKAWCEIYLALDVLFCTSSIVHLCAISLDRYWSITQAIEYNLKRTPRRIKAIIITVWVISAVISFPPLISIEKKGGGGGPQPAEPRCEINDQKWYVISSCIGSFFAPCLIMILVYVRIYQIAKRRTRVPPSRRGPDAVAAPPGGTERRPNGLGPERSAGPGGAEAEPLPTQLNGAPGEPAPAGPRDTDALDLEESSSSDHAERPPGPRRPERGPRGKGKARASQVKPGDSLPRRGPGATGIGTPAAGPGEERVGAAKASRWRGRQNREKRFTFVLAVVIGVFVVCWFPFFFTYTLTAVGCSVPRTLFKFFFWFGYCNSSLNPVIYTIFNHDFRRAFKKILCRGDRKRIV

Thromboxane-A synthase = target: T3, Thromboxane-A synthase (Homo sapiens, UniProt P24557); experiment: biochemical; type: tissue-based, Platelet; conditions: platelet;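 note: enzyme inhibition assay with PGH2 supplied as substrate; in other assays of this panel Not Active means under 50% inhibition at 10 µM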
T3 sequence (P24557 whole entry): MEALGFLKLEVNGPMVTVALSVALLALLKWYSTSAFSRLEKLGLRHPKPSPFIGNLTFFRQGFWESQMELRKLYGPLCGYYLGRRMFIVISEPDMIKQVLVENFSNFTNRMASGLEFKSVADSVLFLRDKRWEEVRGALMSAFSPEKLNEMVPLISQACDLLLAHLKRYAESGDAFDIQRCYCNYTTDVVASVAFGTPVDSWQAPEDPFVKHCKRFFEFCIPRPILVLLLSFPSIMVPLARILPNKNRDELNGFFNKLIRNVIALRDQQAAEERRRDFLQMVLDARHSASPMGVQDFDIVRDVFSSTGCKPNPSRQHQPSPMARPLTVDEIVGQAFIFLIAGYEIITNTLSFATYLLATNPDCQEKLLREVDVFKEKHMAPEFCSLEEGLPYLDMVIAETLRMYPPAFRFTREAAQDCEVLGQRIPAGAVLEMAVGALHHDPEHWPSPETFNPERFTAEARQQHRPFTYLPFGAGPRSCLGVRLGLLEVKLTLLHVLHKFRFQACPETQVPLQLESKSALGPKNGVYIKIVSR

[5] = DRUGMATRIX: Purinergic P2X radioligand binding (ligand: [3H] alpha, beta-Methylene-ATP); type: cell membranes, Oryctolagus cuniculus, New Zealand albino, Urinary bladder, Membrane; conditions: Not Active = under 50% inhibition at 10 µM

Cc1ccc(-c2cc(C(F)(F)F)nn2-c2ccc(S(N)(=O)=O)cc2)cc1 [CELECOXIB]
Not Active: IC50 [1] | Ki [1] | IC50 [2] | IC50 [3] | IC50 (Adenosine receptor A2a) | IC50 [4] | IC50 (Thromboxane-A synthase) | IC50 [5] | Ki [5]

c1ccc(Nc2ccc(Nc3ccccc3)cc2)cc1
Not Active: IC50 [1] | Ki [1] | IC50 [2] | IC50 [3] | IC50 (Adenosine receptor A2a) | IC50 [4] | IC50 (Thromboxane-A synthase) | IC50 [5] | Ki [5]

Cc1onc(-c2ccccc2Cl)c1C(=O)N[C@@H]1C(=O)N2[C@@H]1SC(C)(C)[C@@H]2C(=O)O [CLOXACILLIN]
Not Active: IC50 [1] | Ki [1] | IC50 [2] | IC50 [3] | IC50 (Adenosine receptor A2a) | IC50 [4] | IC50 (Thromboxane-A synthase) | IC50 [5] | Ki [5]

CC1=C2C(=CO[C@H](C)[C@H]2C)C(O)=C(C(=O)O)C1=O [CITRININ]
Not Active: IC50 [1] | Ki [1] | IC50 [2] | IC50 [3] | IC50 (Adenosine receptor A2a) | IC50 [4] | IC50 (Thromboxane-A synthase) | IC50 [5] | Ki [5]

CC(C)C(=O)Nc1ccc([N+](=O)[O-])c(C(F)(F)F)c1 [FLUTAMIDE]
Not Active: IC50 [1] | Ki [1] | IC50 [2] | IC50 [3] | IC50 (Adenosine receptor A2a) | IC50 [4] | IC50 (Thromboxane-A synthase) | IC50 [5] | Ki [5]

CC[C@@]1(O)C[C@H](O[C@H]2C[C@H](N(C)C)[C@H](O[C@H]3C[C@H](O)[C@H](O[C@H]4CCC(=O)[C@H](C)O4)[C@H](C)O3)[C@H](C)O2)c2c(cc3c(c2O)C(=O)c2c(O)cccc2C3=O)[C@H]1C(=O)OC [ACLARUBICIN]
Not Active: IC50 [1] | Ki [1] | IC50 [2] | IC50 [3] | IC50 (Adenosine receptor A2a) | IC50 [4] | IC50 (Thromboxane-A synthase) | IC50 [5] | Ki [5]

Nc1nc2c(ncn2CCC(CO)CO)c(=O)[nH]1 [PENCICLOVIR]
Not Active: IC50 [1] | Ki [1] | IC50 [2] | IC50 [3] | IC50 (Adenosine receptor A2a) | IC50 [4] | IC50 (Thromboxane-A synthase) | IC50 [5] | Ki [5]

O=c1oc2ccccc2c(O)c1Cc1c(O)c2ccccc2oc1=O [DICUMAROL]
Not Active: IC50 [1] | Ki [1] | IC50 [2] | IC50 [3] | IC50 (Adenosine receptor A2a) | IC50 [4] | IC50 (Thromboxane-A synthase) | IC50 [5] | Ki [5]
